Among the data in ChEMBL document CHEMBL5257035, “Nucleoside Derived Antibiotics to Fight Microbial Drug Resistance: New Utilities for an Established Class of Drugs?” (J Med Chem, 2016) are MIC, IC50 and inhibition values, retold here.

For orientation: MIC means the lowest concentration found to suppress growth. The term IC50 denotes the midpoint of a concentration-inhibition curve. What is called inhibition is how much of the control response was suppressed. A low value points to a response near the control.

≈ marks a conversion by molar mass, not a printed value.

The subject of series [1] is Candida albicans. Briefly: Antifungal activity against Candida albicans assessed as inhibition of fungal growth. Format: functional.
In series [2] the test system is Aspergillus fumigatus. Briefly: Antifungal activity against Aspergillus fumigatus assessed as inhibition of fungal growth. Format: functional.
The subject of series [3] is Candida albicans. The experiment in a line: Antifungal activity against Candida albicans assessed as fungal growth inhibition measured after 24 hrs by micro broth dilution method. Format: functional. (In general: In broth dilution the organism is exposed to a series of concentrations in liquid medium.)
Series [4] relates to Cryptococcus neoformans. The experiment in a line: Antifungal activity against Cryptococcus neoformans assessed as fungal growth inhibition measured after 24 hrs by micro broth dilution method. Format: functional.
In series [5] the test system is Aspergillus fumigatus. Briefly: Antifungal activity against Aspergillus fumigatus assessed as fungal growth inhibition. Format: functional.
Series [6] relates to Mycobacterium intracellulare. The experiment in a line: Antimycobacterial activity against Mycobacterium intracellulare assessed as microbial growth reduction. Format: functional.
For the next series, the system named is Mycobacterium kansasii. Briefly: Antimycobacterial activity against Mycobacterium kansasii assessed as microbial growth reduction. Format: functional.
The next series relates to Mycobacterium avium. The experiment in a line: Antimycobacterial activity against Mycobacterium avium assessed as microbial growth reduction. Format: functional.
The next series concerns Enterococcus faecalis. The experiment in a line: Antimicrobial activity against Enterococcus faecalis 10785 assessed as reduction in microbial growth by broth microdilution method. Format: functional.
The test system of a further series is Staphylococcus aureus. Briefly: Antimicrobial activity against methicillin-resistant Staphylococcus aureus assessed as reduction in microbial growth by broth microdilution method. Format: functional.
For series [7], the system named is Candida albicans. Briefly: Antifungal activity against Candida albicans B-311 assessed as reduction fungal growth incubated for 16 hrs by microbroth dilution method. Format: functional.
In another series the test system is Pseudomonas aeruginosa. Briefly: Antimicrobial activity against Pseudomonas aeruginosa M35 assessed as reduction in microbial growth. Format: functional.
Series [8] can be described thus: Cytotoxicity against human HepG2 cells assessed as reduction in cell viability incubated for 72 hrs by MTT assay. Format: toxicity, cell-based. In general terms: Tetrazolium dyes change colour on reduction, which living cells bring about.
Series [9] is described as follows: Inhibition of Bacterial MraY. The arrangement: species or system Bacteria.
A short description of series [10]: Inhibition of Candida albicans chitin synthase.
Series [11] relates to Candida albicans. Briefly: Inhibition of Candida albicans chitin synthase at 1 uM relative to control.
For series [12], the system named is Cryptococcus neoformans. Briefly: Antifungal activity against Cryptococcus neoformans assessed as fungal growth inhibition. Format: functional.
In another series the test system is Fusarium oxysporum. The experiment in a line: Antifungal activity against Fusarium oxysporum assessed as inhibition of fungal growth. Format: functional.
For series [13], the system named is Candida albicans. Briefly: […] activity against Candida albicans assessed as […] measured after 24 hrs by microtitre dilution method. Format: functional.
Series [14] has as its system Candida albicans. Briefly: Antifungal activity against Candida albicans SC5314 assessed as reduction in microbial growth inhibition incubated for 48 hrs by broth microdilution assay. Format: functional.
The subject of series [15] is Cutaneotrichosporon cutaneum. Briefly: Antifungal activity against Trichosporon cutaneum 3071 assessed as reduction in microbial growth inhibition for 48 hrs by broth microdilution assay. Format: functional.
The test system of a further series is Coccidioides immitis. Briefly: Antifungal activity against Coccidioides immitis assessed as reduction in fungal growth. Format: functional.
Series [16] in a line: Inhibition of Candida albicans SC5314 chitin synthase using UDP-GlcNAc as substrate incubated for 1 hr.
In series [17] the test system is Cryptococcus neoformans. Briefly: Antifungal activity against Cryptococcus neoformans assessed as reduction in fungal growth. Format: functional.

On to `O=C(OC[C@H]1O[C@@H](n2ccc(=O)[nH]c2=O)[C@H](O)[C@@H]1O)c1cc(O)ccc1O`, for which the minimal inhibitory concentration (MIC) with Candida albicans [1] and in the series on Aspergillus fumigatus [2] was 1000 µg/mL (≈ 2630 µM) in each case.
As for `Nc1ncnc2c1ncn2[C@@H]1O[C@H](CSCCC(=O)O)[C@@H](O)[C@H]1O`, the MIC in the series with Candida albicans [3], with Cryptococcus neoformans [4] and in the series with Aspergillus fumigatus [5] was 0.19 µM (≈ 0.0675 µg/mL) each time.
As for `CCCCCCCCCCCC(=O)O[C@@H]1[C@H](OC)[C@@H]([C@@H](O[C@@H]2OC(C(=O)N[C@H]3CCC[C@@H](C)NC3=O)=C[C@@H](O)[C@H]2O)C(N)=O)O[C@H]1n1ccc(=O)[nH]c1=O`, the MIC (in [6]; in the series with Mycobacterium kansasii; with Mycobacterium avium) was 0.063 µg/mL (≈ 0.0823 µM) in each case.
`CCOC(=O)CCSC[C@H]1O[C@@H](n2cnc3c(N)cccc32)[C@H](O)[C@@H]1O`: the MIC in the series with Candida albicans [3], with Cryptococcus neoformans [4] and in the series with Aspergillus fumigatus [5] was 0.19 µM (≈ 0.0725 µg/mL) each time.
`C=CCSC[C@H]1O[C@@H](n2cnc3c([N+](=O)[O-])cccc32)[C@H](O)[C@@H]1O`: the MIC with Candida albicans [3], in the series on Cryptococcus neoformans [4] and with Aspergillus fumigatus [5] was 0.19 µM (≈ 0.0668 µg/mL) each time.
On to `CC(C)[C@H](O)[C@H](N)C(=O)NCCCN[C@H](C(=O)OC(C)(C)C)[C@@H](O)[C@H]1O[C@@H](n2ccc(=O)[nH]c2=O)[C@H](O[Si](C)(C)C(C)(C)C)[C@@H]1O[Si](C)(C)C(C)(C)C`, for which the MIC in the series on Enterococcus faecalis and in the series with Staphylococcus aureus was 1 µg/mL in each case.
On to `CC(C)C[C@H](N)C(=O)N[C@H](C(=O)N[C@@H](C(=O)O)[C@H]1OC(n2cc(C=O)[nH]c2=O)[C@H](O)[C@@H]1O)[C@H](C)[C@H](O)c1cc(O)ccn1` (stereo not given in full), for which the MIC in the series on Candida albicans [7] came to 83 µg/mL (≈ 136 µM).
Regarding `CSCC[C@H](NC(=O)N[C@@H](Cc1cccc(O)c1)C(=O)O)C(=O)NC(CN(C)C(=O)C1Cc2ccc(O)cc2CN1)C(=O)N/C=C1/C[C@@H](O)[C@H](N2CCC(=O)NC2=O)O1` (stereo not given in full), the minimal inhibitory concentration (MIC) in the series with Pseudomonas aeruginosa turned out to be 6.25 µg/mL.
As to `O=C(OC[C@H]1O[C@@H](n2ccc(=O)[nH]c2=O)[C@H](O)[C@@H]1O)c1ccccc1O`, the MIC in the series with Candida albicans [1] and with Aspergillus fumigatus [2] was 1000 µg/mL (≈ 2740 µM) each time.
As to `CCCCCCCCCCCCCCC(=O)O[C@@H]1[C@H](OC)[C@@H]([C@@H](O[C@@H]2OC(C(=O)N[C@H]3CCC[C@@H](C)NC3=O)=C[C@@H](O)[C@H]2O)C(N)=O)O[C@H]1n1ccc(=O)[nH]c1=O`, the MIC (in series [6]; with Mycobacterium kansasii; in the series on Mycobacterium avium) was 0.063 µg/mL (≈ 0.078 µM) each time.
Turning to `CCCCCCCCCCCCCCC[C@@H](NC(=O)[C@@H](NC(=O)N[C@H](C(=O)O)C(C)C)[C@@H]1CCNC(=N)N1)C(=O)NCCCNC(C(=O)O)[C@H](O[C@@H]1O[C@H](CN)[C@@H](O)[C@H]1O)[C@H]1O[C@@H](n2ccc(=O)[nH]c2=O)[C@H](O)[C@@H]1O` (stereo not given in full), in series [8], the concentration for half-maximal inhibition (IC50) at 72 h is > 100 µg/mL. This molecule also displayed an IC50 in [9] of 740 nM. For the same molecule, the MIC with Enterococcus faecalis turned out to be 0.25 µg/mL; with Staphylococcus aureus, 2 µg/mL.
On to `Nc1cccc2c1ncn2[C@@H]1O[C@H](CSCCC(=O)O)[C@@H](O)[C@H]1O`, for which the minimal inhibitory concentration (MIC) in the series on Candida albicans [3], with Cryptococcus neoformans [4] and in the series on Aspergillus fumigatus [5] was 0.19 µM (≈ 0.0671 µg/mL) in each case.
For `CSCC[C@H](NC(=O)N[C@@H](Cc1cccc(O)c1)C(=O)O)C(=O)NC(CN(C)C(=O)C1Cc2ccc(O)cc2CN1)C(=O)N/C=C1/C[C@@H](O)[C@H](n2ccc(=O)[nH]c2=O)O1` (stereo not given in full), the minimal inhibitory concentration (MIC) in the series with Pseudomonas aeruginosa turned out to be 6.25 µg/mL.
Consider `Nc1ccc(C(=O)OC[C@H]2O[C@@H](n3ccc(=O)[nH]c3=O)[C@H](O)[C@@H]2O)c(O)c1`, for which the MIC in the series with Candida albicans [1] and in the series with Aspergillus fumigatus [2] was 1000 µg/mL (≈ 2640 µM) throughout.
Turning to `O=C(NC[C@@H]1O[C@H](n2ccc(=O)[nH]c2=O)[C@@H](O)[C@H]1O)OCCOC(=O)NC[C@H]1O[C@@H](n2ccc(=O)[nH]c2=O)[C@H](O)[C@@H]1O`, the half-maximal inhibitory concentration (IC50) in series [10] was found to be 1100 nM. The molecule also gave an inhibition with Candida albicans [11] of 32%.
Taken in the same sequence, the figures for `O=C(NC[C@@H]1O[C@H](n2ccc(=O)[nH]c2=O)[C@@H](O)[C@H]1O)OCCOCCOC(=O)NC[C@H]1O[C@@H](n2ccc(=O)[nH]c2=O)[C@H](O)[C@@H]1O` were 11800 nM and 45%.
`CC1(C)O[C@@H]2[C@H](O1)[C@@H](Cn1cc(COc3ccc(Cl)cc3)nn1)O[C@H]2n1ccc(=O)[nH]c1=O`: the results for the minimal inhibitory concentration (MIC) in the series with Candida albicans [1], in the series on Cryptococcus neoformans [12] and in the series with Fusarium oxysporum were 24 µg/mL (≈ 50.4 µM), 8 µg/mL (≈ 16.8 µM) and 32 µg/mL (≈ 67.2 µM), respectively.
`CCCCCCCCCC(=O)O[C@@H]1[C@H](OC)[C@@H]([C@@H](O[C@@H]2OC(C(=O)N[C@H]3CCC[C@@H](C)NC3=O)=C[C@@H](O)[C@H]2O)C(N)=O)O[C@H]1n1ccc(=O)[nH]c1=O`: the MIC (in [6]; in the series on Mycobacterium kansasii; in the series on Mycobacterium avium) was 0.063 µg/mL (≈ 0.0854 µM) each time.
Take `NC(=O)OC[C@H](O)[C@@H](O)[C@H](N)C(=O)N[C@H](C(=O)O)[C@H]1O[C@@H](n2cc(C=O)[nH]c2=O)[C@H](O)[C@@H]1O`: the MIC with Candida albicans [13] was determined as 6 µg/mL (≈ 12.6 µM).
As to `CCCCCCCCCCCCCC(=O)O[C@@H]1[C@H](OC)[C@@H]([C@@H](O[C@@H]2OC(C(=O)N[C@H]3CCC[C@@H](C)NC3=O)=C[C@@H](O)[C@H]2O)C(N)=O)O[C@H]1n1ccc(=O)[nH]c1=O`, the minimum inhibitory concentration (MIC) (in [6]; in the series on Mycobacterium kansasii; in the series with Mycobacterium avium) was 0.063 µg/mL (≈ 0.0794 µM) throughout.
As for `CSCC[C@H](NC(=O)N[C@@H](Cc1cccc(O)c1)C(=O)O)C(=O)NC(CN(C)C(=O)C1Cc2ccc(O)cc2C(C)N1)C(=O)N/C=C1/C[C@@H](O)[C@H](n2ccc(=O)[nH]c2=O)O1` (stereo not given in full), in the series with Pseudomonas aeruginosa, the minimal inhibitory concentration (MIC) is 6.25 µg/mL.
`C[C@@H]([C@H](N)C(=O)N[C@H](C(=O)O)[C@H]1O[C@@H](n2ccc(=O)[nH]c2=O)[C@H](O)[C@@H]1O)[C@H](O)c1ccc(O)cn1` [NIKKOMYCIN]: the MIC is 10 µg/mL (≈ 20.2 µM) with Candida albicans [7]; 8 µg/mL in the series with Candida albicans [14]; 64 µg/mL in series [15]; 0.25 µg/mL (≈ 0.505 µM) with Coccidioides immitis; 0.03 µg/mL (≈ 0.0606 µM) in the series on Cryptococcus neoformans [17]. Also, the values for the half-inhibitory concentration (IC50) in series [16] and in [10] were 0.3 µg/mL (≈ 0.606 µM) and 800 nM, respectively.
In series [9], `CCC(C)CCCCCCC/C(C)=C/C(C)=C/C(=O)NCC(=O)N[C@H]1[C@H](OP(=O)(O)OC(C(=O)O)C(C[C@H]2O[C@@H](n3ccc(=O)[nH]c3=O)[C@H](O)[C@@H]2O)O[C@@H]2O[C@H](CO)[C@@H](O)[C@H](O)[C@H]2O)O[C@H](CO)[C@@H](O)[C@@H]1O` (stereo not given in full) displayed a half-maximal inhibitory concentration (IC50) of 1100 nM. For the same molecule, the minimum inhibitory concentration (MIC) turned out to be 50 µg/mL with Enterococcus faecalis and 100 µg/mL with Staphylococcus aureus.
Turning to `COc1ccc(OCc2cn(C[C@H]3O[C@@H](n4ccc(=O)[nH]c4=O)[C@@H]4OC(C)(C)O[C@@H]43)nn2)cc1`, the MIC worked out at 24 µg/mL (≈ 50.9 µM) in the series with Candida albicans [1], 8 µg/mL (≈ 17 µM) in the series with Cryptococcus neoformans [12] and 32 µg/mL (≈ 67.9 µM) with Fusarium oxysporum.
`N[C@@H](Cc1cc2ccccc2c2ccccc12)C(=O)N[C@@H](C(=O)O)[C@H]1O[C@@H](n2ccc(=O)[nH]c2=O)[C@H](O)[C@@H]1O`: the IC50 in [16] turned out to be 0.31 µg/mL (≈ 0.58 µM).
Regarding `CSCC[C@H](NC(=O)N[C@@H](Cc1cccc(O)c1)C(=O)O)C(=O)NC(CN(C)C(=O)C1Cc2ccc(O)cc2C(C)N1)C(=O)N/C=C1/C[C@@H](O)[C@H](N2CCC(=O)NC2=O)O1` (stereo not given in full), the MIC in the series on Pseudomonas aeruginosa stood at 6.25 µg/mL.
As to `COc1ccc(Cn2c(=O)ccn([C@@H]3O[C@H]([C@H](O)[C@H](NCCCNC(=O)[C@@H](N)[C@@H](O)C(C)C)C(=O)OC(C)(C)C)[C@@H](O[Si](C)(C)C(C)(C)C)[C@H]3O[Si](C)(C)C(C)(C)C)c2=O)cc1`, the minimal inhibitory concentration (MIC) with Enterococcus faecalis and in the series on Staphylococcus aureus was 4 µg/mL throughout.
